Like-named read-outs stand apart in the source and are kept apart here.
Legend:
[1] = Oral pharmacokinetic study in rats; format: in vivo
Procedure: The rats were fasted overnight before the experiment and anesthetized using an intramuscular injection of zoletil at 20 mg/kg. The femoral artery and vein were cannulated with a polyethylene tube (Clay Adams, Parsippany, NJ, USA). Acacetin (dissolved in a vehicle composed of DMSO, ethanol, and PEG400 (10:5:85, v/v/v)) was administered intravenously (10 mg/kg) or orally (100 mg/kg) to rats. Approximately 250 μL of blood was collected via the femoral artery at 0, 2, 5, 15, 30, 45, 60, 120, and 180 min after intravenous administration and at 0, 2, 5, 15, 30, 45, 60, 90, 120, and 180 min after oral administration. The cannula was flushed with heparin (20 IU/mL in saline) at each time point to prevent blood clotting. Following centrifugation of the blood sample at 8000× g and 4 °C for 2 min, 120 μL of plasma was obtained. Urine was collected at 1-h intervals in an ice-cold container over 24 h. After urine collection at 24 h, each rat was sacrificed by cervical dislocation; the entire GI tract (including its contents and feces) was excised, transferred into a beaker containing 100 mL methanol, and cut into small pieces using scissors. After manual stirring with a glass rod for 1 min, a 50-μL aliquot of the supernatant was collected. The plasma, urine (Ae24h), and GI tract (GI24h) samples were stored at −80 °C until further LC-MS/MS analysis.
A noncompartmental analysis (WinNonlin ver. 3.1; Certara USA Inc., Princeton, NJ, USA) was performed to determine the following pharmacokinetic parameters: the AUCinf, area under plasma concentration versus time curve from time zero to the last sampling time (AUClast), t1/2, total body clearance (CL), apparent volume of distribution at steady state (Vss), and absolute oral bioavailability (F). The Cmax and time to reach Cmax (Tmax) were directly obtained from the plasma concentration versus time data.

[2] = Michaelis–Menten metabolic kinetics in RLM with NADPH and UDPGA; format: in vitro ADME, rat; conditions: NADPH and UDPGA/alamethicin
Procedure: To investigate hepatic phase I enzymes- and UGT-dependent metabolism of acacetin, the disappearance rate of acacetin at concentrations of 1–200 µM in RLM was measured in the presence of both NADPH and UDPGA. The substrate (acacetin) concentration ((S); µM) versus the initial metabolic rate (V; nmol/min/mg protein) profiles were interpreted based on Michaelis–Menten kinetics, and relevant parameters were estimated via nonlinear regression analysis (GraphPad Prism ver. 5.01; GraphPad Software, San Diego, CA, USA) using the following Michaelis–Menten equation: V = Vmax× [S]/Km× [S] where Km and Vmax are the Michaelis–Menten constant and maximal metabolic rate, respectively. The unbound intrinsic metabolic clearance (CLint) was calculated as Vmax/(Km × fuMIC). Furthermore, the disappearance of acacetin (20 μM) in the absence or presence of specific CYP isoform-selective inhibitors in RLM was determined to study the hepatic CYP-mediated metabolism of acacetin. Microsomal incubation mixtures (total volume of 200 μL) were prepared as follows: RLM (0.5 mg/mL microsomal protein), 1 mM NADPH, 10 mM MgCl2, 50 mM potassium phosphate buffer, acacetin, with or without CYP isoform-selective inhibitors (10 μM NF for rat CYP1A, 10-μM SPZ for rat CYP2C, 10-μM QND for rat CYP2D, and 10-μM KCZ for rat CYP3A). At 0 and 5 min after initiating the metabolic reaction, a 100-μL aliquot of the incubation mixture was taken, transferred into a clean 1.5 mL microcentrifuge tube containing 100 μL cold acetonitrile to terminate the metabolic reaction, and finally treated in the same manner as described for the tissue S9 fraction samples.

[3] = Maximum absorbable dose (MAD) estimation; set-up: species or system rat; conditions: oral dose 100 mg/kg, from measured SIF solubility
Source text: The PAMPA permeability values of acacetin seem to lie approximately in the middle of those of verapamil and ranitidine. […]. Rats have been recognized as a good animal model for predicting the GI absorption of drugs, particularly via passive diffusion, in humans. As a GI absorption prediction model, the maximum absorbable dose (MAD) can estimate a theoretical dose of a drug that can be absorbed across rat intestine, using solubility, intestinal volume, residence time, and intestinal permeability. […] Thus, the SIF solubility of acacetin measured in the present study could not represent an actual solubility of acacetin when it is dispersed in the dosing vehicle and subsequently administered into the GI fluids, which could result in the under-estimation of MAD. Alternatively, an in silico estimate of acacetin solubility in water can be used for the calculation of MAD.

[4] = set-up: method as in PMID 28421306; conditions: oral, 5 mg/kg in mice; cited from earlier work
Caco-2 cell = system: Caco-2 cell; set-up: method as in PMID 22292790; conditions: cited from earlier work

GI24h ([1]; PO 100 mg/kg, GI tract at 24 h): 29.3 ± 22.3 % of dose
Ae24h ([1]; PO 100 mg/kg, urine 24 h): 0.0601 ± 0.0634 % of dose
AUC(0-t) ([1]; rat, plasma, PO 100 mg/kg): 12.9 ng·h/mL
Cmax ([1]; rat, plasma, PO 100 mg/kg): 52.1 ± 50.5 ng/mL
Tmax ([1]; rat, plasma, PO 100 mg/kg, median (range)): 5 min
bioavailability ([1]; rat, urine, PO 100 mg/kg vs IV 10 mg/kg, from dose-normalized urinary excretion, read-out: F (absolute oral bioavailability)): 2.34%
Km ([2]; 1–200 µM): 187 ± 14 µM
microsomal CLint ([2]; Sprague-Dawley, rat, liver microsomes (RLM)): 508 ± 9 µL/min/mg
MAD as portion of the orally administered dose [3]: 0.00361%
Structure (SMILES): COc1ccc(-c2cc(=O)c3c(O)cc(O)cc3o2)cc1 [acacetin, Acacetin]
Vmax [2]: 95.0 ± 5.6 nmol/min/mg protein
Cmax [4]: 17 ng/mL
F [4]: 1.30%
Caco-2 cell permeability (Caco-2 cell): 2.81 × 10^–6 cm/s

Reference: PMC7911516, “Investigation of the Factors Responsible for the Poor Oral Bioavailability of Acacetin in Rats: Physicochemical and Biopharmaceutical Aspects” (Pharmaceutics, 2021)
